Data on 2 molecules can be found in patent US20200000834A1, “POLYPHENOL GLYCOSIDE-CONTAINING COMPOSITION” (SUNSTAR INC., priority 2018, published 2020).

The test system of one test is AMPK. The note with it: known as; cited from earlier work.
In test [1] the test system is ACC (acetyl-CoA carboxylase). Briefly: ACC phosphorylation (pACC/tACC) by western blotting in C2C12 myotubes. Type of test: cell-based, mouse. The note with it: single use or combination in a specific mass ratio. As for the experimental part:
The resultant was used in the following experiment. Since trifolin and astragalin have the same molecular weights, their concentration ratios are the same as the mass ratios. A medium without any addition was used as a negative control, and a medium containing AICAR (final concentration: 2 mM) was used as a positive control. AICAR is a substance that is metabolized to an analog of AMP when taken in a cell.
A mouse skeletal myotube cell line (C2C12) was inoculated in a 6-well cell culture plate. The cell line was cultured in a DMEM medium containing 10% fetal bovine serum and a 1% antibacterial agent at 37° C. in the presence of 5% carbon dioxide for 3 days. […] The protein concentration of each supernatant was measured. […]
After SDS-PAGE, the protein was transferred to a PVDF membrane, and blocking was performed. […] After sufficient washing, chemiluminescence (band) on the membrane was detected using a CCD camera imager (produced by GE Healthcare) (FIG. 1). The band intensity was quantified using image J (NIH). The degree of the activity (i.e., “phosphorylated AMPK/total AMPK (pAMPK/tAMPK)” or “phosphorylated ACC/total ACC (pACC/tACC)”) was expressed as a relative value with the value of the negative control being defined as 1 (FIG. 2a and FIG. 2b).

Consider `NC(=O)c1ncn([C@@H]2O[C@H](CO)[C@@H](O)[C@H]2O)c1N` [AICAR], for which the “AMPK activation in skeletal muscle” value in the test on AMPK is on record as “significantly activating AMPK”. Regarding `O=c1c(O[C@@H]2O[C@H](CO)[C@H](O)[C@H](O)[C@H]2O)c(-c2ccc(O)cc2)oc2cc(O)cc(O)c12` [trifolin, kaempferol-3-O-galactoside], the “ACC phosphorylation promotion (ACC inactivation promotion) effects” value in test [1] was “almost no effects”.
